Measurements as given in patent publication US9687498B1, “Composition for preventing or treating muscle wasting-related disease and use thereof” (Samsung Electronics Co., Ltd., priority 2015, dated 2017).
Where a name gives a salt, the structure may show the parent alone.

Tests used:
Assay type in all cases: cell-based, mouse
PGC-1 alpha 4 isoform = assay: Real time PCR of PGC-1 alpha 4 isoform mRNA in differentiated C2C12 muscle cells; conditions: 10 μM compound in 0.1% DMSO, about 24 hours, normalized to GAPDH, vs DMSO negative control
Protocol: (§1) In detail, C2C12 cell line (mouse gastrocnemius muscle, ATCC® CRL-1772™) was seeded in a 10% FBS/DMEM culture medium. When the cells reached about 70% confluence in 5% CO2 incubator at 37° C., the culture medium was replaced by 2% FBS/DMEM, and further cultured for about 4 days to induce complete differentiation into muscle cells. The C2C12 cell line is a mouse myoblast cell line obtained through continuous culture of myoblasts cultured from the gastrocnemius muscle of C3H mice.
(§2) When the C2C12 cells were completely differentiated, the medium was removed, and 10 μM (in 0.1% DMSO) of active compound for screening was added to the cultured muscle cells, followed by incubation under conditions of 37° C. and 5% CO2 for about 24 hours. As the active compound for screening, a library of a total of 700 compounds (Selleck Chemicals) was used. Thereafter, the cultured muscle cells were washed with PBS to obtain muscle cells. As a negative control, muscle cells treated with DMSO (Sima-Aldrich), instead of the active compound for screening, were used. As a positive control, muscle cells treated with forskolin were used.
(§3) Total RNA was separated according to the manufacturer's protocol by adding a Trizol reagent (Invitrogen) to the obtained cells. cDNA was synthesized from the separated total RNA using reverse transcriptase. The mRNA levels of PGC-1 alpha 4 isoform and myostatin were quantified using a real time PCR (MyiQPCR instrument, BioRad), which is a device for measuring SYBR Green. The resulting amounts were then normalized to the amount of GAPDH mRNA.
(§4) After normalization of the values obtained from the amplification to GAPDH gene, relative mRNA expression levels of PGC-1 alpha 4 isoform and myostatin were quantified. The relative mRNA expression levels (Arbitrary Unit; AU) of PGC-1 alpha 4 isoform and myostatin thus quantified are shown in FIGS. 2A and 2B, respectively (*: p<0.05 vs. negative control).

myostatin = assay: Real time PCR of myostatin mRNA in differentiated C2C12 muscle cells; conditions: 10 μM compound in 0.1% DMSO, about 24 hours, normalized to GAPDH, vs DMSO negative control
Protocol: as §1, §2, §3, §4

C2C12 cells = assay: Muscle fiber diameter of differentiated C2C12 muscle cells (microscope); conditions: 100 μM compound, about 24 hours, vs DMSO negative control
Protocol: as §1
Muscle fiber-protecting effects of the compounds selected in 1. were examined by measuring the diameter of muscle fiber according to addition of the selected compounds.
As described in Example 1.1, C2C12 cells were completely differentiated to muscle cells. After removal of the medium, 4 ml of a fresh medium containing each 100 μM of isotretinoin (Roche), vismodegib (Genentech), or lincomycin hydrochloride (Sima-Aldrich) was added, and the cells were cultured in a 5% CO2 incubator at 37° C. for about 24 hours. As a negative control, muscle cells treated with DMSO (Sima-Aldrich), instead of the selected compounds, were used. As a positive control, muscle cells treated with forskolin were used.
Thereafter, the cultured cells were washed with PBS. Muscle fibers of the cells were photographed with a microscope (×200), and diameter (μm) of the muscle fiber was measured.

| Compound | level (relative mRNA expression) of PGC-1 alpha 4 isoform compared to the negative control (PGC-1 alpha 4 isoform) | level (relative mRNA expression) of myostatin compared to the negative control (myostatin) | muscle fiber diameter compared to the negative control (C2C12 cells) |
| --- | --- | --- | --- |
| CC1=C(/C=C/C(C)=C/C=C/C(C)=C\C(=O)O)C(C)(C)CCC1 [isotretinoin, (2Z,4E,6E,8E)-3,7-dimethyl-9-(2,6,6-trimethylcyclohex-1-en-1-yl)nona-2,4,6,8-tetraenoic acid] | increasing | decreasing | increased |
| CCC[C@@H]1C[C@@H](C(=O)N[C@@H]([C@H]2O[C@H](SC)[C@H](O)[C@@H](O)[C@H]2O)[C@@H](C)O)N(C)C1 [lincomycin hydrochloride, (2S,4R)-N-[(1R,2R)-2-hydroxy-1-[(2R,3R,4S,5R,6R)-3,4,5-trihydroxy-6-(methylsulfanyl)oxan-2-yl]propyl]-1-methyl-4-propylpyrrolidine-2-carboxamide] | increasing | decreasing | increased |
| CS(=O)(=O)c1ccc(C(=O)Nc2ccc(Cl)c(-c3ccccn3)c2)c(Cl)c1 [vismodegib, 2-chloro-N-(4-chloro-3-pyridin-2-ylphenyl)-4-methylsulfonylbenzamide] | increasing | decreasing | increased |
